# From PMC6811774, “Potent, selective, and subunit‐dependent activation of TRPC5 channels by a xanthine derivative” (British Journal of Pharmacology, 2019)
# What was measured:
# Assay type in all cases: cell-based
# [1] = target: TRPC5–C1 channels (Homo sapiens, UniProt P48995+Q9UL62); test: [Ca2+]i measurement in (Tet+) HEK T-REx cells expressing hTRPC5-C1 concatemer
# Protocol: HEK T‐REx™ cell line was transfected with TRPC5‐SYFP2 or TRPC4‐SYFP2 using FuGENE® HD transfection reagent. After 48 hr, cells were put under antibiotic selection using 400 μg·ml^−1 zeocin and 10 μg·ml^−1 blasticidin S (Invivogen, San Diego, California, USA). Medium changes were carried out regularly to remove dead cells. HEK T‐REx cells expressing tetracycline‐inducible human TRPC5, TRPC4–C1, and TRPC5–C1 were created as described previously (Akbulut et al., 2015; Ludlow et al., 2017; Rubaiy, Ludlow, Henrot, et al., 2017). TRPC5–C1 and TRPC4–C1 concatemers allow expression of functional channels with defined 2:2 stoichiometry that display ion permeability and current–voltage relationships distinct from those of homomeric TRPC4:C4 or TRPC5:C5 channels and consistent with those obtained upon co‐expression of TRPC1 with TRPC4 or TRPC5 (Ludlow et al., 2017; Rubaiy, Ludlow, Bon, & Beech, 2017; Rubaiy, Ludlow, Henrot, et al., 2017). Cells were cultured in DMEM‐F12 GlutaMAX (Invitrogen, Paisley, UK) containing 10% FBS (Sigma‐Aldrich, Gillingham, UK), with the addition of blasticidin (10 μg·ml^−1) and zeocin (400 μg·ml^−1) to maintain the stable incorporation of the tetracycline repressor and the channel of interest, respectively. Expression of proteins was induced by the addition of tetracycline (1 μg·ml^−1, 24 hr). Cells were maintained in a humidified incubator with 5% CO2 at 37°C. HEK 293 cells stably expressing tetracycline‐regulated human http://www.guidetopharmacology.org/GRAC/ObjectDisplayForward?objectId=494 were prepared similarly and have also been described previously (McHugh, Flemming, Xu, Perraud, & Beech, 2003). For experiments using transient co‐expression of TRPC1 and TRPC5, HEK cells at 40–60% confluency were transfected with pIRES2‐AcGFP1 and pIRES2‐DsRed‐Express2 plasmids containing human TRPC1 and TRPC5, respectively, using Lipofectamine 3000 (ThermoFisher Scientific, Yokohama, Japan). All experiments using transient expression were performed within 48 hr after transfection. […]
# [2] = target: T1, TRPC3 (Homo sapiens, UniProt Q13507); test: [Ca2+]i selectivity assay, WT HEK 293 cells transiently transfected with hTRPC3, OAG activation; settings: 300 nM AM237; 100 μM OAG
# T1 construct: expressed in transfected cells; host or cells: WT HEK 293 (transient, jetPRIME)
# T1 sequence (Q13507 1-921): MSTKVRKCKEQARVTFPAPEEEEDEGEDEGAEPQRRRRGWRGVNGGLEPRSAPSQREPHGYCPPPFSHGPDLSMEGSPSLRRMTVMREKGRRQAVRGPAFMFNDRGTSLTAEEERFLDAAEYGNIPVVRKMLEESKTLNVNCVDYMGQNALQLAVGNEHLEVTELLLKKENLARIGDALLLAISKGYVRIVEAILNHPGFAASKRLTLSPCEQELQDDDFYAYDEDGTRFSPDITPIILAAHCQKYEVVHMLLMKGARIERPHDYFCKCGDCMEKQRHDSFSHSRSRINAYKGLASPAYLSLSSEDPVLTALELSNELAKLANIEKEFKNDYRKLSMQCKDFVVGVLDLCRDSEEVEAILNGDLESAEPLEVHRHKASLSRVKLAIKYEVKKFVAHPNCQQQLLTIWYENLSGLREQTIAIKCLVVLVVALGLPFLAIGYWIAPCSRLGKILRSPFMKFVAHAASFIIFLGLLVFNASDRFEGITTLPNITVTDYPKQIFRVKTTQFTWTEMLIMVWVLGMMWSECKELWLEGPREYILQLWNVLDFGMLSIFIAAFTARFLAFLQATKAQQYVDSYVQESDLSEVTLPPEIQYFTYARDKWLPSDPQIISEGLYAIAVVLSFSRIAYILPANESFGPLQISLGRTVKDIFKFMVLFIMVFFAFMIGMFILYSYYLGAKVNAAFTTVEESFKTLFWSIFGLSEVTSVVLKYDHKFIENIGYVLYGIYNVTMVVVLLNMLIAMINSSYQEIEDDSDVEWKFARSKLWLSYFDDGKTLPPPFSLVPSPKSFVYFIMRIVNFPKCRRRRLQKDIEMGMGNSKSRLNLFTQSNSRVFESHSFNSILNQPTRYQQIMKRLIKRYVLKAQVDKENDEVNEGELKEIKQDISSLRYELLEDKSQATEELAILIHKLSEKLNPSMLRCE
# [3] = target: T2, native TRPC1:C4 channels in A498 cells (Homo sapiens, UniProt P48995+Q9UBN4); test: [Ca2+]i measurement in A498 renal carcinoma cells
# T2 construct: A498 renal carcinoma cells, which endogenously express TRPC1:C4 channels; endogenous in cells; host or cells: A498
# T2 sequence (Q9UBN4 whole entry): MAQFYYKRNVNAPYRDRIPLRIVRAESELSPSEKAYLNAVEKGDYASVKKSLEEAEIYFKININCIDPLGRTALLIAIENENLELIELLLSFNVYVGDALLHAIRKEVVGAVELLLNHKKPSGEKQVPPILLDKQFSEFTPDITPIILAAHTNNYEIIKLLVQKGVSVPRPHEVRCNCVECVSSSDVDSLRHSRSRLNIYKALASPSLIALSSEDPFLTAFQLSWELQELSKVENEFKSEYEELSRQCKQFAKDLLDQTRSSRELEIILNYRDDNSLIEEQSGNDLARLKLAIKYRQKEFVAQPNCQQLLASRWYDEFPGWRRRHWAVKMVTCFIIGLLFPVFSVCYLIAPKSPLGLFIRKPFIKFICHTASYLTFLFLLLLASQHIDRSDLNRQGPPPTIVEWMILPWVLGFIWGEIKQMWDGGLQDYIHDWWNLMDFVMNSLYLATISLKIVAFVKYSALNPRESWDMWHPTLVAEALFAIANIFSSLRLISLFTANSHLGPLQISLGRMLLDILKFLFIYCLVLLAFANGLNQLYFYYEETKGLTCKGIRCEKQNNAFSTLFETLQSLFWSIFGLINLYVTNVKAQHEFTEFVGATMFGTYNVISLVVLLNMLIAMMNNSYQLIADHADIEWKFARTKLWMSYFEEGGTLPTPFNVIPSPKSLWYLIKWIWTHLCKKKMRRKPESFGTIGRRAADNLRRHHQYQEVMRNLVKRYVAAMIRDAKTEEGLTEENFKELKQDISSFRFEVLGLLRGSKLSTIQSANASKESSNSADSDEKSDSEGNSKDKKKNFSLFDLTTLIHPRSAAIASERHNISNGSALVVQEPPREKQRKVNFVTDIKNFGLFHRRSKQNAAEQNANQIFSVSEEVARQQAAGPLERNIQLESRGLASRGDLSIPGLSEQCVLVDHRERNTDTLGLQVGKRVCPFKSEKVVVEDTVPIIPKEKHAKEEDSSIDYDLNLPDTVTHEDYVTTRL
# T2 sequence (P48995 whole entry): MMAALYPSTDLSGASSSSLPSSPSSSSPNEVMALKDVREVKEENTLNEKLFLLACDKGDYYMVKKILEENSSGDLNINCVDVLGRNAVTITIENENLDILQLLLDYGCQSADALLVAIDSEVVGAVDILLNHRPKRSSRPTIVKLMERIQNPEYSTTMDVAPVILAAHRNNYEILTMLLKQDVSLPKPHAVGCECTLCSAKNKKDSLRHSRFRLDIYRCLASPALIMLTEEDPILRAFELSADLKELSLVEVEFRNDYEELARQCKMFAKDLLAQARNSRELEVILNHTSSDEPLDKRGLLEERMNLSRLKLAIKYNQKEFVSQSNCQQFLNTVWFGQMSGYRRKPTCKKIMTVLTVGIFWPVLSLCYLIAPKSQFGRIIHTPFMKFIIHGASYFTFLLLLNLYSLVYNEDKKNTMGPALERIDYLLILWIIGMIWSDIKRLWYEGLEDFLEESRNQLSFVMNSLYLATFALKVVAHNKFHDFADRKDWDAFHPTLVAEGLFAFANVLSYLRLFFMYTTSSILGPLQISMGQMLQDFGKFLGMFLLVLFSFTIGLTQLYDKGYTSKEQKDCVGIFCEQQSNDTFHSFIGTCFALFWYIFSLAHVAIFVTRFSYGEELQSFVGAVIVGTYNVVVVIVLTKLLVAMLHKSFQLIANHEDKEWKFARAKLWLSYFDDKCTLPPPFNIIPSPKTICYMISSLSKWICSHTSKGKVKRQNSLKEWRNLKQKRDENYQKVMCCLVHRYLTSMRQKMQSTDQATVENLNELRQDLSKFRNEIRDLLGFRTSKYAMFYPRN
# TRPC5–C1 channels, sequence (Q9UL62 whole entry): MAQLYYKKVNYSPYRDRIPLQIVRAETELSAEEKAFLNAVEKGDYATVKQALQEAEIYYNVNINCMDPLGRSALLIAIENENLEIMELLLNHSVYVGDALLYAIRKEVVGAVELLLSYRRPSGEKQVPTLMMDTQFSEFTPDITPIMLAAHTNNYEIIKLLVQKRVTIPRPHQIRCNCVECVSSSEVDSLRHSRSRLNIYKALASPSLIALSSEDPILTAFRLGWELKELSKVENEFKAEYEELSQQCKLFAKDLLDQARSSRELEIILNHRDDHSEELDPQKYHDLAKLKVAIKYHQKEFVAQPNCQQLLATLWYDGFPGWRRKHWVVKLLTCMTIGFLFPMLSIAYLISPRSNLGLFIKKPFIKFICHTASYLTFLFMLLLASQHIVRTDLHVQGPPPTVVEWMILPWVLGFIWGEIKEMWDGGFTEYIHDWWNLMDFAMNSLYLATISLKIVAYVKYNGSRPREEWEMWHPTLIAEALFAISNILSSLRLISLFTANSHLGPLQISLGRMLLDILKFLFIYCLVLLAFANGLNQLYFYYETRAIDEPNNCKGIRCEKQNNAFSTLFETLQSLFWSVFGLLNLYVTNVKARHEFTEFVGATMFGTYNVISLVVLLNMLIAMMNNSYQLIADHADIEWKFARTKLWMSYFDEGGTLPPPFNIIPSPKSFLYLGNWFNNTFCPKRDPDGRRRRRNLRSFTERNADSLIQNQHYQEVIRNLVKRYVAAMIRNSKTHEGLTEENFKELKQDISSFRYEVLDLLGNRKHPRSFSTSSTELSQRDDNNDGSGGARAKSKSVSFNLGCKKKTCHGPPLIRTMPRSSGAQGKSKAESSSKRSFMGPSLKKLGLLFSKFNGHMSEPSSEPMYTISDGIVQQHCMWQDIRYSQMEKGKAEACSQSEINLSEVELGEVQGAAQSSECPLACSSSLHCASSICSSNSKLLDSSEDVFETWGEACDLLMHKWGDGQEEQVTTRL
# TRPC5–C1 channels, sequence (P48995 whole entry): as the sequence (P48995 whole entry) above
compound,measurement,setting,value
Cn1c(=O)n(CCCO)c(=O)c2c1nc(Oc1ccc(Cl)c(OC(F)(F)F)c1)n2Cc1ccc(Cl)cc1 [AM237],"Hill slope, inhibition of EA response",[1],-1.2
same,Effect of pre-incubation on basal [Ca2+]i,[1]; 0.1–100 nM AM237,did not raise
same,Activation upon acute administration ([Ca2+]i),[1]; 3-300 nM AM237,lack of activation
same,Activation or inhibition of TRPC3,[2],no activation or inhibition
same,"Hill slope, inhibition of EA response",[3],-0.99
same,Effect of pretreatment on basal [Ca2+]i,[3]; 0.01–10 nM AM237,no effect
same,Activation upon acute administration ([Ca2+]i),[3]; 3-300 nM AM237,lack of activation
same,IC50,"[3]; AM237 pretreatment, then EA, read-out: IC50, inhibition of EA-mediated increase in [Ca2+]i",849 pM
